This is an account of results in patent US20220221458A1, “NOROVIRUS-BINDING PEPTIDE” (Kao Corporation, priority 2019, published 2022).

This experiment relates to norovirus VLPs (GII.4, GII.3, GII.17). Nature of the experiment: In vitro selection by cDNA display against VLPs with appearance frequency analysis of sequences. The note with it: count among peptide aptamer sequences obtained after in vitro selection cycles (7 cycles GII.4, 5 cycles GII.3 and GII.17).

Method: The constructed cDNA display and VLPs were incubated in 100 μL of a dialysis selection buffer (20 mM HEPES (pH 7.4), 150 mM NaCl, and 0.05% s Tween 20) at the concentrations shown in Table 9 below at 25° C. for 30 minutes. Subsequently, the resultant was diluted to 1 mL with the dialysis selection buffer, and was put in Float-A-Lyzer G2 Dialysis Device CE, 1000kD MWCO (manufactured by Spectrum Laboratories, Inc.) and was dialyzed with 1 L of the dialysis selection buffer as the external solution at 25° C. During the dialysis, the external solution was replaced with new one 3 times every 2 hours, and the dialysis was performed overnight (for 8 hours) after the 4th replacement. The dialysis product was concentrated with Amicon Ultra 100K (manufactured by Merck Millipore S.A.S.) at 14,000×g for 5 minutes.
To an immunoplate (C-BOTTOM, CLEAR, MICROLON (registered trademark), HIGH BINDING, manufactured by Greiner Bio-One), 100 μL of 3 μg/mL GII.3 or GII.17 VLP solution was added and immobilization was performed at 4° C. overnight. Subsequently, the solution was discarded, and 200 μL of a blocking agent (EMD Millipore™ Blok™ NSB Blocking agents, Thermo Fisher Scientific) was added, followed by gently stirring at room temperature for 2 hours for blocking. On this occasion, wells not immobilizing the VLP were also subjected to similar blocking to be used in preselection.
The solution was discarded from the wells, the wells were washed with 200 μL of a wash buffer (10 mM Hepes (pH 7.4), 150 mM NaCl, and 0.05% Tween 20) three times, and 100 μL of cDNA display (constructed from 1.5 pmol of mRNA-linker) was then put in the wells not immobilizing the VLP, followed by gently stirring at room temperature for 30 minutes to perform preselection. Subsequently, the supernatant containing cDNA display that had not bound to the blocking agent was put in the wells immobilizing the VLP, followed by gently stirring at room temperature for 30 minutes to be bound to the VLP. The supernatant was discarded, washing with 100 μL of the wash buffer was performed four times, and 100 μL of a 5′ SDS solution was then added, followed by incubation at 50° C. for 15 minutes to elute the bound cDNA display.
Subsequently, the VLP-cDNA display complex obtained above was diluted to 100 μL with a dialysis selection buffer, and 10 μL of a coprecipitating agent (Quick-Precip Plus Solution, manufactured by EdgeBio) and 220 μL of 100% ethanol were added, followed by centrifugation at 20,000×g for 5 minutes. Subsequently, the supernatant was discarded, and 1 mL of 70, ethanol was added for rinsing. […] The PCR program was (a) 98° C. for 2 minutes, (b) 95° C. for 20 seconds, (c) 69° C. for 20 seconds, (d) 72° C. for 20 seconds (steps (b) to (d) were performed 25 cycles), and (e) 72° C. for 1 minute.
After the in vitro selection cycle (7 cycles for GII.4 and 5 cycles for GII.3 and GII.17 based on the libraries of 7 cycles obtained by GII.4 dialysis), a sequence library was prepared by the following method, and the sequence information was analyzed. The preparation of the sequence library and the sequencing were performed according to the 16S Metagenomic Sequencing Library Preparation protocol (manufactured by Illumina, Inc.).
The Fastq file of the obtained sequence was converted to a Fasta file, all of the obtained sequences were simultaneously translated from the first base of the start codon (ATG) at position 115 to the third base of the cysteine codon (TGC) at position 156 of the library sequence (SEQ ID NO: 279) using software MEGA.

On to “79 (GWYFHA; Designed peptide) [compound 79]”, for which the “Appearance Frequency” value worked out at 8.
The value for “73 (EWAVSK; Designed peptide) [compound 73]” was 8; that for “29 (DLLNSK; Designed peptide) [compound 29]” was 11.
The value for “127 (LISRHD; Designed peptide) [compound 127]” was 7; that for “7 (GWHETE; Designed peptide) [compound 7]” was 17.
Regarding “217 (NDHDHH; Designed peptide) [compound 217]”, the “Appearance Frequency” value was 6.
Turning to “150 (STVRHR; Designed peptide) [compound 150]”, the “Appearance Frequency” value turned out to be 7.
With “219 (NKSFHR; Designed peptide) [compound 219]”, the “Appearance Frequency” value came to 6.
The figure for “117 (HHYRGL; Designed peptide) [compound 117]” is 7; for “266 (YGKQRG; Designed peptide) [compound 266]” it is 6.
“27 (VHYRQT; Designed peptide) [compound 27]”: the “Appearance Frequency” value was 12.
Consider “204 (KACAHL; Designed peptide) [compound 204]”, for which the “Appearance Frequency” value stood at 6.
As to “174 (FGFREL; Designed peptide) [compound 174]”, the “Appearance Frequency” value worked out at 6.
On to “226 (QCELKD; Designed peptide) [compound 226]”, for which the “Appearance Frequency” value is on record as 6.
The figure for “4 (HLRSIR; Designed peptide) [compound 4]” is 18.
“129 (MHSSLS; Designed peptide) [compound 129]”: the “Appearance Frequency” value is listed as 7.
“38 (AGYPRY; Designed peptide) [compound 38]”: the “Appearance Frequency” value is 10.
“139 (RFLMRH; Designed peptide) [compound 139]”: the “Appearance Frequency” value came to 7.
On to “100 (WDRPAF; Designed peptide) [compound 100]”, for which the “Appearance Frequency” value is reported as 8.
The figure for “40 (FPFGST; Designed peptide) [compound 40]” is 10.
With “179 (GCLSHH; Designed peptide) [compound 179]”, the “Appearance Frequency” value stood at 6.
For “68 (SSPRSH; Designed peptide) [compound 68]”, the “Appearance Frequency” value amounted to 9.
The value for “264 (WTMSPA; Designed peptide) [compound 264]” was 6; that for “58 (KFSHRK; Designed peptide) [compound 58]” was 9; that for “199 (IGRTFH; Designed peptide) [compound 199]” was 6.
In the case of “165 (ARNHGS; Designed peptide) [compound 165]”, the “Appearance Frequency” value is listed as 6.
Turning to “209 (LNDMSF; Designed peptide) [compound 209]”, the “Appearance Frequency” value is given as 6.
Take “162 (YRARMS; Designed peptide) [compound 162]”: the “Appearance Frequency” value was 7.
As to “116 (HHRLHG; Designed peptide) [compound 116]”, the “Appearance Frequency” value is on record as 7.
As to “15 (SIGVDR; Designed peptide) [compound 15]”, the “Appearance Frequency” value is reported as 14.
As to “193 (HMMSRL; Designed peptide) [compound 193]”, the “Appearance Frequency” value is recorded as 6.
For “133 (NKYSHR; Designed peptide) [compound 133]”, the “Appearance Frequency” value was 7.
For the substance “151 (STYRSW; Designed peptide) [compound 151]”, the “Appearance Frequency” value is given as 7.
The figure for “154 (TVLHHR; Designed peptide) [compound 154]” is 7; for “26 (TWDLTL; Designed peptide) [compound 26]” it is 12.
Consider “142 (RIVGSA; Designed peptide) [compound 142]”, for which the “Appearance Frequency” value is reported as 7.
With “21 (GKFFCH; Designed peptide) [compound 21]”, the “Appearance Frequency” value was determined as 12.
Consider “87 (SIESCL; Designed peptide) [compound 87]”, for which the “Appearance Frequency” value turned out to be 8.
Consider “262 (VPLLSR; Designed peptide) [compound 262]”, for which the “Appearance Frequency” value is listed as 6.
The figure for “22 (GLRYRE; Designed peptide) [compound 22]” is 12; for “85 (LHMKPI; Designed peptide) [compound 85]” it is 8.
“70 (AVGCHV; Designed peptide) [compound 70]”: the “Appearance Frequency” value is on record as 8.
Consider “207 (LHHSSY; Designed peptide) [compound 207]”, for which the “Appearance Frequency” value came to 6.
With “261 (VPFPHH; Designed peptide) [compound 261]”, the “Appearance Frequency” value is 6.
For the substance “195 (HSSLVT; Designed peptide) [compound 195]”, the “Appearance Frequency” value is reported as 6.
Consider “215 (NAVSLK; Designed peptide) [compound 215]”, for which the “Appearance Frequency” value was determined as 6.
Regarding “170 (DSKLHN; Designed peptide) [compound 170]”, the “Appearance Frequency” value was 6.
Consider “102 (AFTSHW; Designed peptide) [compound 102]”, for which the “Appearance Frequency” value amounted to 7.
With “205 (KHAWDL; Designed peptide) [compound 205]”, the “Appearance Frequency” value stood at 6.
The value for “159 (VYFIPD; Designed peptide) [compound 159]” was 7; that for “238 (RLHQCR; Designed peptide) [compound 238]” was 6.
On to “255 (STLVCP; Designed peptide) [compound 255]”, for which the “Appearance Frequency” value was 6.
Take “216 (NCRTRP; Designed peptide) [compound 216]”: the “Appearance Frequency” value is given as 6.
For the substance “96 (VGRFPQ; Designed peptide) [compound 96]”, the “Appearance Frequency” value came to 8.
Consider “60 (NTHRHS; Designed peptide) [compound 60]”, for which the “Appearance Frequency” value was determined as 9.
Regarding “244 (RTVPSS; Designed peptide) [compound 244]”, the “Appearance Frequency” value amounted to 6.
For the substance “211 (LTALSV; Designed peptide) [compound 211]”, the “Appearance Frequency” value worked out at 6.
On to “98 (VVWFTD; Designed peptide) [compound 98]”, for which the “Appearance Frequency” value amounted to 8.
On to “5 (RCSHLR; Designed peptide) [compound 5]”, for which the “Appearance Frequency” value came to 18.
The figure for “25 (NLYDRF; Designed peptide) [compound 25]” is 12; for “9 (GEHAHS; Designed peptide) [compound 9]” it is 15; for “111 (GGGVTT; Designed peptide) [compound 111]” it is 7.
Consider “156 (VRNLVH; Designed peptide) [compound 156]”, for which the “Appearance Frequency” value was 7.
Turning to “90 (SSCVMP; Designed peptide) [compound 90]”, the “Appearance Frequency” value is recorded as 8.
For the substance “163 (AFDGLG; Designed peptide) [compound 163]”, the “Appearance Frequency” value stood at 6.
Regarding “147 (RSSSGR; Designed peptide) [compound 147]”, the “Appearance Frequency” value is on record as 7.
